# Key:
# Assay type in all cases: in vivo
# [1] = tested on: α-SMA-positive CAFs in the FaDu subcutaneous model; assay: Effect on α-SMA-positive CAFs in the FaDu subcutaneous model in mice (Test Example 19)
# Experimental: A human squamous cell carcinoma of the head and neck (SCCHN) cell line FaDu, which had been cultured in an RPMI-1640 medium containing 10% FBS, and penicillin-streptomycin (culture medium), was adjusted to a concentration of 5×10^7 cells/mL with culture medium to prepare a cell suspension. The cell suspension was inoculated in a volume of 100 μL into a subcutaneous part of a right flank of nude mice, 6 weeks of ages (CAnN.Cg-Foxnlnu/CrlCrlj, female, Charles River Laboratories Japan, Inc.). Ten days after cell inoculation, the mice were grouped such that averages of the tumor volumes were substantially equal among the groups. The experiment was conducted on groups each consisting of 5 mice. Each test compound was dissolved in DMSO and a solution was stored in the freezer before use. Immediately before the administration, the stock solution was diluted with saline. The test compound in saline was intravenously administered at 20 μg/kg, […]. Two days or 5 days after the single administration, tumor samples were collected and fixed with IHC Zinc Fixative (BD Pharmingen) at 4° C. for 24 hours. Paraffin-embedded tissues were sectioned (3 μm), mounted on positively charged slides, and air-dried. Sections were deparaffinized, conditioned and the antigens were retrieved using microwave with 1 mM EDTA at pH 6.0. Sections were blocked with 1% of BSA in TBS. Mouse anti-α-SMA monoclonal antibody conjugated with alkaline phosphatase (clone 1A4, Sigma) was applied at 5 μg/mL. Sections were incubated with the antibody for 2.5 hr. […] The area of α-SMA-positive region in the whole tumor was quantified by counting the α-SMA-positive objects using inform 2 software (PerkinElmer Inc.) Area of the tumor region was measured by assessing the hematoxylin-staining area using inform 2 software (PerkinElmer Inc.). […] A suppression rate of the α-SMA-positive area of the test compound-dosing group was calculated with the below formula: α-SMA ratio=α-SMA area of the test compound-dosing group/α-SMA area of the non-treat group
# [2] = tested on: FaDu subcutaneous xenograft; assay: Antitumor effects in FaDu subcutaneous xenograft model in combination with cetuximab in mice, single dose (Test Example 21); details: single dose Day 1
# Experimental: A human squamous cell carcinoma of the head and neck (SCCHN) cell line FaDu, which had been cultured in an RPMI-1640 medium containing 10% FBS, and penicillin-streptomycin, was adjusted to a concentration of 5×10^7 cells/mL with Hanks' Balanced Salt Solution to prepare a cell suspension. The cell suspension was inoculated in a volume of 100 μL into a subcutaneous part of a right flank of athymic mice (CAnN.Cg-Foxnlnu/CrlCrlj, female, 7 weeks old, Charles River Japan Inc.). Ten days after cell inoculation (Day 1), the length and the width of a tumor in each mouse were measured by using an electronic digital caliper (Mitutoyo Corporation), so as to calculate the volume of the tumor in accordance with the following calculation formula: Tumor volume (mm^3)=Longest diameter (mm)×Shortest diameter (mm)×Shortest diameter (mm)/2 Relative tumor volume (RTV)=Tumor volume (day X)/Tumor volume (the first day)
# On the basis of TV, the mice were randomly grouped (Day 1). Each group was consisted in six mice. Compound (1) was dissolved in DMSO and a solution was stored in the freezer before use.
# [3] = tested on: CTG-2041 (human angiosarcoma) tumor fragments; assay: Antitumor effects in CTG-2041 soft tissue sarcoma xenograft model in mice as monotherapy; details: 100 μg/kg intravenously on Day 1 and Day 8
# Source text: Tumor fragments of human angiosarcoma CTG-2041 were implanted s.c. in the left flank of female mice. Tumor growth was monitored twice a week using digital caliper, so as to calculate the volume of the tumor in accordance with the following calculation formula: Tumor volume (mm^3)=Longest diameter (mm)×Shortest diameter (mm)×Shortest diameter (mm)/2 Relative tumor volume (RTV)=Tumor volume (day X)/Tumor volume (the first day)
# When the volume of tumors reached approximately 200 mm^3, animals are matched by tumor volume into treatment or control groups and dosing initiated on Day 1. Each group was consisted with five mice. Compound (1) was dissolved in DMSO and a solution was stored in the freezer before use. Compound (1) (100 μg/kg) diluted in saline and intravenously injected on Day 1 and Day 8.
# [4] = tested on: COLO-704 subcutaneous xenograft; assay: Antitumor effects in the COLO-704 xenograft model in mice as monotherapy
# Experimental: A human ovarian cancer cell line COLO-704, which had been cultured in a RPMI-1640 containing 10% FBS, and penicillin-streptomycin, was adjusted to a concentration of 1×10^8 cells/mL with Hanks' Balanced Salt Solution to prepare a cell suspension. The cell suspension was inoculated in a volume of 100 μL into a subcutaneous part of a right flank of nude mice, 5 weeks of ages (CAnN.Cg-Foxn1nu/CrlCrlj, female, Charles River Laboratories Japan Inc.). Nine days after cell inoculation (Day 1), the shortest diameter and the longest diameter of a tumor in each mouse were measured by using an electronic digital caliper (Digimatic™ caliper, Mitutoyo Corporation), so as to calculate the volume of the tumor in accordance with the following calculation formulae: Tumor volume (mm^3)=Longest diameter (mm)×Shortest diameter (mm)×Shortest diameter (mm)/2 Relative tumor volume (RTV)=Tumor volume (day X)/Tumor volume (the first day) Relative body weight (RBW)=Body weight (day X)/Body weight (the first day)
# On the basis of the volumes of tumors obtained on Day 1, the mice were grouped such that averages of the tumor volumes were substantially equal among the groups. The experiment was conducted on groups each consisting of six mice. The test compound was dissolved in DMSO and a solution was stored in the freezer before use. Immediately before the administration, the stock solution was diluted with saline. The test compound in saline was intravenously once-weekly administered at 20 μg/kg, 60 μg/kg, or 180 μg/kg for 2 weeks (on Day 1 and Day 8).
structure (smiles),measurement,setting,value
C=C1C[C@@H]2CC[C@@]34C[C@H]5O[C@H]6[C@@H](O3)[C@H]3O[C@H](CC[C@@H]3O[C@H]6C5O4)CC(=O)O[C@@H]3[C@@H](C)[C@@H]4O[C@@H]5C[C@]6(C[C@@H]7O[C@]8(C[C@H](C)[C@@H]9O[C@H](CN)[C@H](O)C[C@@H]9O8)C[C@H](C)[C@@H]7O6)O[C@@H]5C[C@@H]4O[C@H]3C[C@H]3O[C@@H](CC[C@@H]1O2)C[C@@H](C)C3=C [Compound (1)],α-SMA positive area,"[1]; single administration 180 μg/kg, Day 3",significantly reduced the α-SMA positive area
same,α-SMA positive area,"[1]; single administration 180 μg/kg, Day 6",significantly reduced the α-SMA positive area
same,α-SMA positive area,"[1]; single administration 60 m/kg, Day 3",significantly reduced the α-SMA positive area
same,antitumor efficacy with CTX,[2]; 180 μg/kg + CTX 10 mg/kg,stronger than that of CTX monotherapy with tumor regression
same,antitumor efficacy with CTX,[2]; 20 mg/kg + CTX 10 mg/kg,tended to be stronger than that of CTX monotherapy
same,antitumor efficacy with CTX,[2]; 60 mg/kg + CTX 10 mg/kg,stronger than that of CTX monotherapy with tumor regression
same,antitumor activity,[3],tumor regression
same,antitumor effect,[4]; 60 μg/kg intravenously on Day 1 and Day 8,tumor growth delay
same,antitumor effect,[4]; 180 μg/kg intravenously on Day 1 and Day 8,tumor regression
same,eradication of xenograft tumors,"[4]; 180 μg/kg, on Day 22",completely eradicated the xenograft tumors in all mice

# — patent US11725015B2, “Macrocyclic compound and uses thereof” (President and Fellows of Harvard College, priority 2017, dated 2023)
